# Key:
# [1] = biological target: T1, MAP kinase-activated protein kinase 2 (Homo sapiens, UniProt P49137); assay: Inhibition of human MK2 using hsp27 peptide biotinyl-AYSRALSRQLSSGVSEIRCOOH as substrate after 45 mins by FRET assay
# PBMC = assay: Antiinflammatory activity against LPS-induced TNFalpha release in human PBMC preincubated for 30 mins measured after 3 hrs of LPS stimulation; assay type: functional, cell-based
# [2] = biological target: T1, MAP kinase-activated protein kinase 2; assay: Inhibition of MK2 in human THP-1 cells assessed as inhibition of anisomycin stimulated ser78-hsp27 phosphorylation after 10 mins by FACS analysis; assay type: cell-based
# [3] = biological target: Mitogen-activated protein kinase 9 (Homo sapiens, UniProt P45984); assay: Inhibition of JNK2
# Sequence of Mitogen-activated protein kinase 9 (P45984 whole entry): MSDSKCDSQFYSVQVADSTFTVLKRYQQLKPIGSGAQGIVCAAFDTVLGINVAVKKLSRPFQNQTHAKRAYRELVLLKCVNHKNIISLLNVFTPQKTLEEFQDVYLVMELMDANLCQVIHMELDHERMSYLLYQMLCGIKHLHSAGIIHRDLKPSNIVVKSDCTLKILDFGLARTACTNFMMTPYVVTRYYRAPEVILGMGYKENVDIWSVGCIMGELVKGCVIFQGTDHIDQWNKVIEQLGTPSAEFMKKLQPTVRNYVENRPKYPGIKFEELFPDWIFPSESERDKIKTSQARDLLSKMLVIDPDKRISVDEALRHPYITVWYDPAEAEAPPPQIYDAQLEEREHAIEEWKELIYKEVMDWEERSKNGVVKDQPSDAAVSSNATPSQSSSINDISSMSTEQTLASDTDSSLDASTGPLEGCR
# [4] = Drug level in LPS-stimulated OFI mouse plasma at 100 mg/kg, po after 2 hrs by LC-MS/MS analysis; assay type: ADME, organism-based; design: dose 100 mg/kg, route oral
# Mus musculus = assay: Antiinflammatory activity in OFI mouse assessed as inhibition of LPS-induced TNFalpha release at 100 mg/kg, po dosed 1 hr before LPS challenge and measured after 1 hr post LPS challenge by ELISA; assay type: functional
# T1 sequence (P49137 whole entry): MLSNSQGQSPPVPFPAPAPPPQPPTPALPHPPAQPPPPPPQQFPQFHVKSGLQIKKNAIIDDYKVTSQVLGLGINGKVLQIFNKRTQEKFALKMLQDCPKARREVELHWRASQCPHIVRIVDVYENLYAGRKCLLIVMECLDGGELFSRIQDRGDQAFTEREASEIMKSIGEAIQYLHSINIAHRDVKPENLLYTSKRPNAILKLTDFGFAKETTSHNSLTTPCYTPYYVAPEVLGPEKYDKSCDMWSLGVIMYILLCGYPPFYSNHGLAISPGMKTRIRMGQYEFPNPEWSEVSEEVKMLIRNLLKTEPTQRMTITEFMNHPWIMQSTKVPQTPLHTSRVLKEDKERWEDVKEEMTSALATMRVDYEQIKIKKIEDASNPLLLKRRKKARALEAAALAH
SMILES,IC50 [1] [nM],IC50 [2] [nM],IC50 [3] [nM],concentration at 2 h [4] [µM],IC50 (PBMC) [nM],inhibition in vivo at 100 mg/kg (Mus musculus) [%]
COCCOc1cncc(-c2cc3c(ccc4c5c([nH]c43)CCNC5=O)cn2)c1,12,700,649,,260,
O=C1NCCCc2[nH]c3c(ccc4cnc(-c5ccccc5OCCN5CCOCC5)cc43)c21,167,,,,> 3000,
O=C1NCCCc2[nH]c3c(ccc4cnc(-c5cncc(OCCN6CCOCC6)c5)cc43)c21,80,> 30000,3170,,8600,
CNCc1[nH]c2c(ccc3cnc(/C=C/c4ccccc4)cc32)c1C(=O)O,60,,,,1240,
O=C1NOCc2[nH]c3c(ccc4cnc(/C=C/c5ccccc5)cc43)c21,25,,,,46,
COc1ccc(-c2cc3c(ccc4c5c([nH]c43)CN(C)NC5=O)cn2)cc1,23,875,547,,2360,
O=C1NCc2[nH]c3c(ccc4cnc(/C=C/c5ccc(CN6CCOCC6)cc5)cc43)c21,8,,22,,5,
O=C1NCc2[nH]c3c(ccc4cnc(/C=C/c5cccc(CCN6CCOCC6)c5)cc43)c21,10,,34,,14,
O=C1NCc2[nH]c3c(ccc4cnc(-c5ccccc5F)cc43)c21,85,5080,30,,912,
O=C1NCc2[nH]c3c(ccc4cnc(-c5ccccc5C(F)(F)F)cc43)c21,900,,,,,
COCCOc1cncc(-c2cc3c(ccc4c5c([nH]c43)CNC5=O)cn2)c1,5,1680,38,,416,
CN1Cc2[nH]c3c(ccc4cnc(/C=C/c5ccccc5)cc43)c2C1=O,1190,,,,,
O=C1NCCc2[nH]c3c(ccc4cnc(/C=C/c5ccc(CN6CCOCC6)cc5)cc43)c21,1,,198,,9,
O=C1NCCc2[nH]c3c(ccc4cnc(/C=C/c5cccc(CCN6CCOCC6)c5)cc43)c21,5,,76,,32,
O=C1NCCc2[nH]c3c(ccc4cnc(-c5cccc(OCCN6CCOCC6)c5)cc43)c21,16,1300,269,,294,
O=C1NCCCc2[nH]c3c(ccc4cnc(/C=C/c5ccccc5)cc43)c21,116,,85,,202,
O=C1NCCCc2[nH]c3c(ccc4cnc(/C=C/c5cccc(CCN6CCOCC6)c5)cc43)c21,172,,700,,> 1000,

# The next lines start with results.
IC50 [1] [nM],IC50 [2] [nM],IC50 [3] [nM],concentration at 2 h [4] [µM],SMILES,IC50 (PBMC) [nM],inhibition in vivo at 100 mg/kg (Mus musculus) [%]
96,8300,2700,,COCCOc1cncc(-c2cc3c(ccc4c5c([nH]c43)CCCNC5=O)cn2)c1,8380,
72,,,,COc1ccc(-c2cc3c(ccc4c5c([nH]c43)CCCNC5=O)cn2)cc1,580,
14,,,,NCc1[nH]c2c(ccc3cnc(/C=C/c4ccccc4)cc32)c1C(=O)O,735,
10,,2,,O=C1NCc2[nH]c3c(ccc4cnc(/C=C/c5ccccc5)cc43)c21,14,
73,,1,,O=C1NCc2[nH]c3c(ccc4cnc(Nc5cccc(F)c5)cc43)c21,15,
27,,,,COc1ccc(-c2cc3c(ccc4c5c([nH]c43)CNC5=O)cn2)cc1,198,
32,1280,11,,O=C1NCc2[nH]c3c(ccc4cnc(-c5cccc(OCCN6CCOCC6)c5)cc43)c21,280,
5,9330,75,,O=C1NCc2[nH]c3c(ccc4cnc(-c5cncc(OCCN6CCOCC6)c5)cc43)c21,556,
15,500,1420,,COc1ccc(-c2cc3c(ccc4c5c([nH]c43)CCNC5=O)cn2)cc1F,97,
10,2500,418,,O=C1NCCc2[nH]c3c(ccc4cnc(-c5cncc(OCCN6CCOCC6)c5)cc43)c21,283,
160,5800,2200,13,COc1ccc(-c2cc3c(ccc4c5c([nH]c43)CCC5=O)cn2)cc1F,1400,73
253,,980,,O=C1NCCCc2[nH]c3c(ccc4cnc(/C=C/c5ccc(CN6CCOCC6)cc5)cc43)c21,140,

# — ChEMBL document CHEMBL1800003, “In vivo and in vitro SAR of tetracyclic MAPKAP-K2 (MK2) inhibitors. Part I” (Bioorg Med Chem Lett, 2010)
